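Values below derive from 48-hour exposures of cells grown in 96-well plates, with endpoints linearly interpolated between the two concentrations bracketing the appropriate inhibition level. TGI: total growth inhibition.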
Tests used:
Assay in all cases: inhibition of tumour cell growth, NCI panel, 48 h
SF-295 CNS = system: SF-295 CNS
SR leukemia = system: SR leukemia
KM12 colon = system: KM12 colon
RPMI-8226 leukemia = system: RPMI-8226 leukemia
SNB-19 CNS = system: SNB-19 CNS
A549 NSCLC = system: A549 NSCLC
SF-268 CNS = system: SF-268 CNS
786-0 renal = system: 786-0 renal
NCI-H23 lung = system: NCI-H23 lung
K-562 leukemia = system: K-562 leukemia
DU-145 prostate = system: DU-145 prostate
BT-549 breast = system: BT-549 breast
T-47D breast = system: T-47D breast
UACC-62 melanoma = system: UACC-62 melanoma
UACC-257 melanoma = system: UACC-257 melanoma
OVCAR-4 ovarian = system: OVCAR-4 ovarian
HL-60(TB) leukemia = system: HL-60(TB) leukemia

| Structure (SMILES) | TGI (SF-295 CNS) | TGI (SR leukemia) | TGI (KM12 colon) | TGI (RPMI-8226 leukemia) | TGI (SNB-19 CNS) | TGI (A549 NSCLC) | TGI (SF-268 CNS) | TGI (786-0 renal) | TGI (NCI-H23 lung) | TGI (K-562 leukemia) | TGI (DU-145 prostate) | TGI (BT-549 breast) | TGI (T-47D breast) | TGI (UACC-62 melanoma) | TGI (UACC-257 melanoma) | TGI (OVCAR-4 ovarian) | TGI (HL-60(TB) leukemia) |
| --- | --- | --- | --- | --- | --- | --- | --- | --- | --- | --- | --- | --- | --- | --- | --- | --- | --- |
| COc1cc2c(cc1O)C(=O)O[C@@H]1CC=C3CCN(C)[C@H]3[C@H]21 | > 25 µM | > 25 µM | > 25 µM | > 25 µM | > 25 µM | > 25 µM | > 25 µM | > 25 µM | > 25 µM | > 25 µM | > 25 µM | > 25 µM | > 25 µM | > 25 µM | > 25 µM | > 25 µM | – |
| CN1CCN(Cc2ccccc2)CC1CC#N (stereo not drawn) | > 100 µM | > 100 µM | > 100 µM | > 100 µM | > 100 µM | > 100 µM | > 100 µM | > 100 µM | > 100 µM | > 100 µM | > 100 µM | > 100 µM | > 100 µM | > 100 µM | > 100 µM | > 100 µM | > 100 µM |
| Cn1c(N)c(/C=C/C(=O)Oc2ccccc2)c(=O)n(C)c1=O | 93.6 µM | – | > 100 µM | > 100 µM | > 100 µM | > 100 µM | > 100 µM | > 100 µM | > 100 µM | > 100 µM | > 100 µM | > 100 µM | > 100 µM | > 100 µM | > 100 µM | > 100 µM | > 100 µM |
| CC1=NNC(=O)C1C1C=C(c2c[nH]c3ccccc23)OC1=O (stereo not drawn) | > 100 µM | – | > 100 µM | > 100 µM | > 100 µM | > 100 µM | > 100 µM | > 100 µM | > 100 µM | > 100 µM | > 100 µM | > 100 µM | > 100 µM | > 100 µM | > 100 µM | – | > 100 µM |
| COc1cc(-c2ccccc2)cn2c1nc1ccccc12 | – | 99.6 µM | 36.1 µM | 62 µM | 69.3 µM | 51.4 µM | 79.4 µM | 34.7 µM | > 100 µM | 67.1 µM | > 100 µM | 32.9 µM | 83.6 µM | 43.9 µM | 47.5 µM | – | 53.2 µM |
| O=Cc1ccc(-c2ccc(S(=O)(=O)O)cc2)o1 | > 100 µM | > 100 µM | > 100 µM | > 100 µM | > 100 µM | > 100 µM | > 100 µM | > 100 µM | > 100 µM | > 100 µM | > 100 µM | > 100 µM | – | > 100 µM | > 100 µM | – | > 100 µM |
| COC(=O)C1=COC2OC3CC1C2C(C)O3 (stereo not drawn) | > 100 µM | > 100 µM | > 100 µM | > 100 µM | > 100 µM | > 100 µM | > 100 µM | > 100 µM | > 100 µM | – | > 100 µM | > 100 µM | > 100 µM | > 100 µM | > 100 µM | > 100 µM | > 100 µM |
| O=C1c2c(O)cccc2Cc2cc(CO)cc(O)c21 | 5.85 µM | 12.1 µM | – | 7.34 µM | 36.6 µM | 9.08 µM | 14.3 µM | 11.4 µM | 6.06 µM | > 100 µM | – | 86 µM | 11.9 µM | – | 5.64 µM | 14.4 µM | 3.1 µM |
| COc1ccc(C2=NN(C(=O)c3ccc(Cl)cc3)C(O)(c3cc(F)c(Cl)cc3Cl)C2)cc1 (stereo not drawn) | > 100 µM | – | > 100 µM | > 100 µM | > 100 µM | > 100 µM | > 100 µM | > 100 µM | > 100 µM | > 100 µM | > 100 µM | > 100 µM | > 100 µM | > 100 µM | > 100 µM | > 100 µM | > 100 µM |
| CCOC(=O)CCc1ccc(NC(=O)/C=C/c2ccc([N+](=O)[O-])o2)cc1 | 28.7 µM | 0.475 µM | 4.43 µM | – | > 71.6 µM | 15.1 µM | 7.63 µM | 1.72 µM | 3.33 µM | – | 6.39 µM | 4.79 µM | 40.8 µM | > 20.5 µM | 2.71 µM | > 100 µM | 0.481 µM |
| CCN1C/C(=C\c2ccc(Cl)cc2)c2[nH]c(=O)c(C#N)c(-c3ccc(Cl)cc3)c2C1 | – | > 100 µM | > 100 µM | > 100 µM | > 100 µM | > 100 µM | > 100 µM | > 100 µM | > 100 µM | > 100 µM | > 100 µM | > 100 µM | > 100 µM | > 100 µM | > 100 µM | > 100 µM | > 100 µM |
| C[C@H]1S[C@H](c2c(F)cccc2F)n2c1nc1ccccc12 | > 100 µM | – | > 100 µM | > 100 µM | > 100 µM | > 100 µM | > 100 µM | > 100 µM | > 100 µM | > 100 µM | > 100 µM | > 100 µM | > 100 µM | > 100 µM | > 100 µM | > 100 µM | – |
| S=C1Cc2c(-c3ccccc3)cc(-c3ccc(Cl)cc3)nc2-c2ccccc2N1 | 18.9 µM | > 100 µM | 51.3 µM | > 100 µM | 4.14 µM | > 33.9 µM | 6.8 µM | – | 19.8 µM | – | 53.1 µM | 37.9 µM | > 57.3 µM | > 20.7 µM | 22.2 µM | 1.71 µM | > 100 µM |
| COc1cc(OC)nc(-n2c(N)c(C(=O)O)c3ccc([N+](=O)[O-])cc3c2=O)n1 | > 100 µM | > 100 µM | > 100 µM | > 100 µM | > 100 µM | > 100 µM | > 100 µM | > 100 µM | > 100 µM | > 100 µM | > 100 µM | > 100 µM | > 100 µM | > 100 µM | – | > 100 µM | > 100 µM |
| O=C1NC(N2CCCCC2)=N/C1=C\c1ccco1 | > 100 µM | > 100 µM | > 100 µM | > 100 µM | > 100 µM | > 100 µM | > 100 µM | > 100 µM | > 100 µM | – | > 100 µM | > 100 µM | > 100 µM | > 100 µM | > 100 µM | > 100 µM | > 100 µM |
